Tests used:
Settings in all cases: 72 h
HepG2 [1] = assay: drug sensitivity score (DSS) for viability; higher = more toxic; extreme values may be limits of the assay
Vero E6 [2] = assay: as above
Calu-3 [3] = assay: as above
U2OS [4] = assay: as above
Caco-2 [5] = assay: as above
HepG2 [6] = assay: cell viability relative to DMSO; higher = less toxic
Vero E6 [7] = assay: as above
Calu-3 [8] = assay: as above
U2OS [9] = assay: as above
Caco-2 [10] = assay: as above
HepG2 [11] = assay: relative viability EC50 (midpoint between 100% and the lowest measured viability); higher = less toxic
Vero E6 [12] = assay: as above
Calu-3 [13] = assay: as above
U2OS [14] = assay: as above
Caco-2 [15] = assay: as above

SMILES	drug sensitivity score (HepG2 [1])	drug sensitivity score (Vero E6 [2])	drug sensitivity score (Calu-3 [3])	drug sensitivity score (U2OS [4])	drug sensitivity score (Caco-2 [5])	cell viability (HepG2 [6]; 1 nM)	cell viability (HepG2 [6]; 10 nM)	cell viability (HepG2 [6]; 100 nM)	cell viability (HepG2 [6]; 1000 nM)	cell viability (HepG2 [6]; 10000 nM)	cell viability (Vero E6 [7]; 1 nM)	cell viability (Vero E6 [7]; 10 nM)	cell viability (Vero E6 [7]; 100 nM)	cell viability (Vero E6 [7]; 1000 nM)	cell viability (Vero E6 [7]; 10000 nM)	cell viability (Calu-3 [8]; 1 nM)	cell viability (Calu-3 [8]; 10 nM)	cell viability (Calu-3 [8]; 100 nM)	cell viability (Calu-3 [8]; 1000 nM)	cell viability (Calu-3 [8]; 10000 nM)	cell viability (U2OS [9]; 1 nM)	cell viability (U2OS [9]; 10 nM)	cell viability (U2OS [9]; 100 nM)	cell viability (U2OS [9]; 1000 nM)	cell viability (U2OS [9]; 10000 nM)	cell viability (Caco-2 [10]; 1 nM)	cell viability (Caco-2 [10]; 10 nM)	cell viability (Caco-2 [10]; 100 nM)	cell viability (Caco-2 [10]; 1000 nM)	cell viability (Caco-2 [10]; 10000 nM)	relative viability EC50 (HepG2 [11])	relative viability EC50 (Vero E6 [12])	relative viability EC50 (Calu-3 [13])	relative viability EC50 (U2OS [14])	relative viability EC50 (Caco-2 [15])
CN(CCOc1ccc(-c2ccc3c(c2)OCO3)cc1C(C)(C)C)CC(=O)O	0	0	0	0	0	95.8%	89.7%	110%	92.9%	110%	99.3%	97.6%	97.6%	95.3%	98.7%	100%	95.1%	93.9%	103%	107%	93.9%	98.5%	97.5%	101%	100%	104%	102%	94.2%	92.8%	89.8%	> 10 µM	> 10 µM	> 10 µM	> 10 µM	> 10 µM
COc1cc2c(cc1OC)[C@@]13CCN4CC5=CCO[C@H]6CC(=O)N2[C@H]1[C@H]6[C@H]5C[C@H]43 [brucine]	2.6	0	0	0	0	109%	103%	90.2%	83.6%	96.9%	106%	92.3%	95.2%	99%	98.9%	110%	101%	91.4%	98%	97.1%	96.8%	101%	101%	96.5%	96.9%	104%	89.9%	112%	106%	91.7%	> 10 µM	> 10 µM	> 10 µM	> 10 µM	> 10 µM
O=C(O)c1cccnc1Nc1cccc(C(F)(F)F)c1 [niflumic-acid]	0	0	0	0	0	103%	101%	99.6%	97.2%	104%	100%	96%	97.4%	97.3%	101%	100%	90.9%	98.7%	99.7%	95.2%	99.7%	98%	104%	106%	102%	108%	98.5%	98.4%	96.2%	100%	> 10 µM	> 10 µM	> 10 µM	> 10 µM	> 10 µM

Reference: the supplement of paper PMC13380429
